Experimental data taken from patent US10105384B2, “Nucleic acids targeting TCTP for use in the treatment of chemo- or hormone-resistant cancers” (INSTITUT NATIONAL DE LA SANTE ET DE LA RECHERCHE MEDICALE …, priority 2010, dated 2018).

Tested on: TCTP
Experiment: ASO sequences screening: TCTP expression by western blot and/or qRT-PCR
Assay type: cell-based, human
Conditions: WB and/or qRT-PCR, PC-3 cells overexpressing TCTP
Description: Western Blot analysis was performed as described previously (Rocchi et al., 2004, Cancer Res. 64:6595-602) with 1:5000 rabbit anti-Hsp27 polyclonal antibody (Assay Designs, Villeurbanne, France), 1:2000 rabbit TCTP polyclonal antibody (Abcam Inc., Cambridge, UK), 1:250 rabbit anti-MSL1v1 polyclonal antibody (Abcam Inc.), 1:500 mouse anti-ubiquitin monoclonal antibody (Santa Cruz Biotechnology Inc., Heidelberg, Germany) or 1:1000 rabbit anti-caspase-3 polyclonal antibody (Cell Signalling Technology Inc., Danvers, USA). Loading levels were normalized using 1:5000 rabbit anti-glyceraldehyde-3-phosphate dehydrogenase polyclonal (Abcam Inc.) or 1:2500 mouse anti-vinculine monoclonal antibodies (Sigma Chemical Co., St Louis, Mo., USA).
The quantitative reverse transcription polymerase chain reaction (qRT-PCR) analysis was done on a LightCycler detection system (Roche Applied Science, Meylan, France). Expression levels of 18S subunit of the ribosome gene were used as an internal control. First strand cDNA was synthesized from 1 μg of total RNA using random hexamers and expanded by reverse transcriptase according to the manufacturer's instructions (ImProm-II Reverse Transcription System, Promega, Charbonniéres-les-Bains, France), subsequently diluted 1:10 with water, and stored at −20° C. until use. TCTP and 18S polymerase chain reaction (PCR) products were detected by quantitative real time PCR (qRT-PCR) using the SYBR Premix Ex Taq (Takara Bio Inc, St Germain en Laye, France) following the manufacturer's instructions. Five microliters of diluted cDNA template were mixed with 10 μl SYBR Premix Ex Taq (including Taq polymerase, reaction buffer, MgCl2, SYBR green I dye, and deoxynucleotide triphosphate mix) and 0.4 μM forward and reverse primers, in a final volume of 20 μl. The following primers were used: TCTP forward 5′-[…]-3′ (SEQ ID NO: 8) and TCTP reverse 5′-[…]-3′; (SEQ ID NO: 9); 18S forward 5′-[…]-3′ (SEQ ID NO: 10) and 18S reverse 5′-[…]-3′ (SEQ ID NO: 11). After an initial Taq activation for 10 seconds at 95° C., Light Cycler PCR was done using 55 cycles with the following cycling conditions: 95° C. for 5 seconds, 58° C. for 7 seconds, and 72° C. for 14 seconds. Each sample was analyzed in duplicate and the experiment was repeated three times. Results were analyzed using RealQuant data analysis software (Roche, Neuilly-sur-seine, France). The results analysis was done with the 2(-Delta Delta C(T)) Method (Livak K J. et al., 2001; Methods. 25:402-8).
In order to find a sequence ASO having an inhibiting effect on TCTP expression, 30 ASO sequences have been designed 26 of which are shown in table 1. Said 30 sequences cover the TCTP mRNA (accession number NM_003295). Using BLAST program, the specificity of said sequences has been studied. Among said 30 sequences, only 15 sequences have been identified as being specific for TCPT mRNA sequence (see table 1). The effect of said ASO sequences on TCTP expression was tested by western blot analysis (WB) and/or by quantitative reverse transcription polymerase chain reaction (qRT-PCR) on PC-3 cells overexpressing TCTP. WB and qRT-PCR were performed as exposed in example 1.

Row | Molecule | ability to inhibit TCTP expression
1 | ACCAGTGATTACTGTGCTTT (listed as DNA, chemistry not fully specified) [ASO13] | strong ability to inhibit TCTP expression
2 | AGAAAATCATATATGGGGTC (listed as DNA, chemistry not fully specified) [ASO24] | strong ability to inhibit TCTP expression
3 | ATGTAATCTTTGATGTACTT (listed as DNA, chemistry not fully specified) [ASO17] | strong ability to inhibit TCTP expression
4 | CTTGTAGGCTTCTTTTGTGA (listed as DNA, chemistry not fully specified) [ASO16] | strong ability to inhibit TCTP expression
5 | GAAATTAGCAAGGATGTGCT (listed as DNA, chemistry not fully specified) [ASO30] | strong ability to inhibit TCTP expression
6 | GTCATAAAAGGTTTTACTCT (listed as DNA, chemistry not fully specified) [ASO28] | strong ability to inhibit TCTP expression
7 | GTTTCCCTTTGATTGATTTC (listed as DNA, chemistry not fully specified) [ASO18] | strong ability to inhibit TCTP expression
8 | TAATCATGATGGCGACTGAA (listed as DNA, chemistry not fully specified) [ASO4] | strong ability to inhibit TCTP expression
9 | TTAACATTTCTCCATTTCTA (listed as DNA, chemistry not fully specified) [ASO26] | strong ability to inhibit TCTP expression
10 | TTCTGGTCTCTGTTCTTCAA (listed as DNA, chemistry not fully specified) [ASO19] | strong ability to inhibit TCTP expression

Tested on: PC-3 tumors
Experiment: PC-3 tumor growth in vivo in athymic nude mice
Conditions: PC3 xenografted nude mice, 10th week of treatment
Description: Approximately 3.10^6 PC-3 cells and 10.10^6 LNCaP cells were inoculated subcutaneously with 0.1 mL of Dulbecco's Modified Eagle's Medium (Invitrogen) supplemented with 10% FCS for PC-3 or with 0.1 mL of Matrigel (BD Biosciences Discovery Labware) for LNCaP in the flank region of 4-week-old male athymic nude mice (Charles River, L'Arbresle, France) via a 23-gauge needle. When PC-3 tumors reached 50 mm^3, usually 3 to 4 weeks after injection, mice were randomly selected for treatment with TCTP ASO alone, scrambled ASO alone, TCTP ASO plus docetaxel or scrambled ASO plus docetaxel. Mice bearing LNCaP tumors between 200 and 300 mm^3 in volume were castrated via scrotal approach and randomly assigned to a treatment arm. Mice were treated beginning 1 week after castration with TCTP ASO or control ASO alone and serum PSA measurements were done weekly. For both experiments, each experimental group consisted in 10 mice and the tumor volume measurements were performed once weekly and calculated by the formula length×width×depth×0.5236 (Gleave et al., 1999, Clin Cancer Res 5:2891-8). After randomization, 10 mg/kg TCTP or scrambled ASO was injected intraperitoneally (i.p) once daily for 60 days for ASO monotherapy groups and 90 days for the ASO plus docetaxel groups. A total of 35 mg/kg docetaxel was administrated i.p. three times per week from days 7 to 14. Tumor volume measurements were performed once weekly and calculated by the formula length×width×depth×0.5236 (20). Data points were expressed as average tumor volume levels +/−standard error (SE). All animal procedures were performed in accordance with protocols approved by French laws and the European directives and with appropriate institutional certification.
We next evaluated the effects of TCTP ASO treatment on the growth of PC-3 tumors in vivo (FIG. 8). Male nude mice bearing PC-3 tumors (50 mm^3) were randomly selected for TCTP ASO versus scrambled ASO and 10 mg/kg ASO were administrated once daily by i.p. injection for […]. From days 7 to 14, 30 mg/kg of docetaxel was administrated i.p. 3 days in the week. Mean tumor volume was similar in all groups before therapy.
TCTP inhibition was evaluated in nude mice xenografted with the PC3 CRPC cell line. The animals were treated in an everyday basis and for a period of two months by peritoneal injection of ASO or control TCTP once their tumor volume was 200-300 mm^3. In order to evaluate the additive anticancer activity of ASO TCTP, mice were treated with docetaxel (33 mg/kg) by peritoneal injection three times per week for one week prior to ASO or control TCTP injections. For all experiments, the average tumor volume was measured once a week.

Row | Molecule | tumor volume
11 | 5′-CGTGTAGGTACGGCAGATC-3′ (listed as DNA, chemistry not given here) [ASO scrambled, reference compound] | over 1500 mm^3

Tested on: PC-3 cells
Experiment: Flow cytometry of propidium iodide-stained nuclei (apoptosis, cell cycle), PC-3 cells
Assay type: cell-based, human
Conditions: PC-3, docetaxel treatment
Description: Flow cytometry of propidium iodide-stained nuclei was performed as described previously (Rocchi et al., 2004, Cancer Res. 64:6595-602). In brief, PC-3 cells were plated at the density of 10^6 cells into 10 cm dishes in DMEM supplemented with 10% FCS. To assess the effect of TCTP inhibition on apoptosis and cell cycle, cells were treated the day after seeding with 5 nM of siRNA TCTP or control and 100 nM of ASO TCTP or scrambled control for 48 h. Cells were then treated with 50 nM of docetaxel. After 24 h, the cells were analyzed for relative DNA content on a dual laser flow cytometer (FACSCalibur, Becton Dickinson Biosciences, Le Pont de Claix, France). Each assay was performed in triplicate.
Flow cytometry was used to quantify the percentage of cells in each cell cycle phase three days after the siRNA treatment. After the treatment of PC-3 cells with 5 nM TCTP siRNA for 1 day, the fraction of cells undergoing apoptosis (sub-G1/G0 fraction) was 25% higher after treatment with 5 nM TCTP siRNA compared with scrambled control siRNA (**, P≤0.01; FIG. 6, upper panel). Using TCTP ASO treatment alone, we found an increase of 75% in sub-G0G1 fraction (***, P≤0.001; FIG. 6, middle and bottom panel), enhanced by the 50 nM docetaxel treatment (90% in sub-G0-G1 fraction, ***, P≤0.001). […] The fraction of PC-3 in S phase was 20 to 40% lower after TCTP siRNA or ASO treatments respectively compared to the scrambled controls (FIG. 6). […] The rate of apoptotic PC-3 cells after TCTP silencing with different ASO concentrations was explored with the Invitrogen countess (FIG. 6 and FIG. 7A). PC-3 cells were treated with 70, 100 or 200 nM of TCTP ASO or control. Cells were harvested 3 days after treatment and […] of trypan blue was added before analysis with Invitrogen Countess. […] Moreover, TCTP has been reported to interact with caspase-3, thereby inhibiting caspase-3 activation (Gnanasekar et al., 2009, Int J Oncol. 34:1241-6). In order to investigate the effect of TCTP silencing on caspase-3 cleavage and activity, PC-3 cells were treated daily with 100 nM TCTP or scrambled ASO for 2 days. Cells were harvested 2 days after and proteins were extracted for western blotting with a caspase-3 antibody that recognizes both full-length and cleaved caspase-3.
PC3 cells were transfected with a TCTP siRNA of SEQ ID NO: 3. Cell proliferation and apoptosis were studied using respectively MTT (3-(4,5-dimethylthiazol-2-yl)-2,5-diphenyl tetrazolium bromure) assay and flow cytometry.
PC3 cells were transfected with a TCTP ASO of SEQ ID NO: 2. Cell proliferation and apoptosis were studied using respectively MTT assay and flow cytometry.

Row | Molecule | fraction of cells in S phase | fraction of cells undergoing apoptosis
12 | CC(=O)O[C@@]12CO[C@@H]1C[C@H](O)[C@@]1(C)C(=O)[C@H](O)C3=C(C)[C@@H](OC(=O)[C@H](O)[C@@H](NC(=O)OC(C)(C)C)c4ccccc4)C[C@@](O)([C@@H](OC(=O)c4ccccc4)[C@H]21)C3(C)C [docetaxel, reference compound] | without changing the fraction of cells in S phase | increased the fraction of cells undergoing apoptosis
